Values after ≈ are worked out from the molar mass of the structure shown.
Legend:
[1] = test system: Serratia marcescens No. 16-2; experiment: minimum inhibitory concentration, agar plate dilution method; format: cell-based; conditions: NO.162, S. marcescens No. 16-2, inoculated amount of cells 10^6 CFU/ml, Muller-Hinton agar, read-out: minimum inhibitory concentration (M.I.C.)
[2] = test system: Acinetobacter calcoaceticus No. 4; experiment: as above; format: cell-based; conditions: A. calcoaceticus No. 4, inoculated amount of cells 10^6 CFU/ml, Muller-Hinton agar, read-out: minimum inhibitory concentration (M.I.C.)
[3] = test system: Pseudomonas aeruginosa K-13; experiment: as above; format: cell-based; conditions: K13, P. aeruginosa K-13, inoculated amount of cells 10^6 CFU/ml, Muller-Hinton agar, read-out: minimum inhibitory concentration (M.I.C.)
[4] = test system: Staphylococus aureus FDA 209-P JC-1; experiment: as above; format: cell-based; conditions: Staphylococcus aureus, FDA209; S. aureus FDA 209-P JC-1; inoculated amount of cells 10^6 CFU/ml; Muller-Hinton agar; read-out: minimum inhibitory concentration (M.I.C.)
[5] = test system: Pseudomonas aeruginosa K-13; experiment: infection-preventive effects in mice (intraperitoneal infection, survival); format: in vivo, JCL:JCR type male mice; conditions: K13, ip, 168 h, P. aeruginosa K-13, 3.0 × 10^4 cells/mouse i.p., with mucin, compound hypodermically 1 hour after infection, 7-day survival, read-out: ED50
[6] = test system: Klebsiella pneumoniae No. 42; experiment: minimum inhibitory concentration, agar plate dilution method; format: cell-based; conditions: K. pneumoniae No. 42, inoculated amount of cells 10^6 CFU/ml, Muller-Hinton agar, read-out: minimum inhibitory concentration (M.I.C.)
Proteus vulgaris No. 33 = experiment: as above; format: cell-based; conditions: P. vulgaris No. 33, inoculated amount of cells 10^6 CFU/ml, Muller-Hinton agar, read-out: minimum inhibitory concentration (M.I.C.)
[7] = test system: Pseudomonas aeruginosa Y-1; experiment: as above; format: cell-based; conditions: Y1, P. aeruginosa Y-1, inoculated amount of cells 10^6 CFU/ml, Muller-Hinton agar, read-out: minimum inhibitory concentration (M.I.C.)
[8] = test system: Pseudomonas aeruginosa Y-1; experiment: infection-preventive effects in mice (intraperitoneal infection, survival); format: in vivo, JCL:JCR type male mice; conditions: Y1, ip, 168 h, P. aeruginosa Y-1, 4.0 × 10^5 cells/mouse i.p., with mucin, compound hypodermically 1 hour after infection, 7-day survival, read-out: ED50
[9] = test system: Enterobacter cloacae Nek 39; experiment: minimum inhibitory concentration, agar plate dilution method; format: cell-based; conditions: NEK39, E. cloacae Nek 39, inoculated amount of cells 10^6 CFU/ml, Muller-Hinton agar, read-out: minimum inhibitory concentration (M.I.C.)
[10] = test system: Staphyloccocus aureus Smith; experiment: infection-preventive effects in mice (intraperitoneal infection, survival); format: in vivo, JCL:JCR type male mice; conditions: Staphylococcus aureus, ip, 168 h; S. aureus Smith, 7.7 × 10^7 cells/mouse i.p., no mucin; compound hypodermically 1 hour after infection; 7-day survival
Pseudomonas cepacia 23 = experiment: minimum inhibitory concentration, agar plate dilution method; format: cell-based; conditions: Burkholderia cepacia; P. cepacia 23; inoculated amount of cells 10^6 CFU/ml; Muller-Hinton agar; read-out: minimum inhibitory concentration (M.I.C.)
Escherichia coli ML 4707 [11] = experiment: as above; format: cell-based; conditions: ML4707, E. coli ML 4707, inoculated amount of cells 10^6 CFU/ml, Muller-Hinton agar, read-out: minimum inhibitory concentration (M.I.C.)
Escherichia coli ML 4707 [12] = experiment: infection-preventive effects in mice (intraperitoneal infection, survival); format: in vivo, JCL:JCR type male mice; conditions: ML4707, ip, 168 h, E. coli ML 4707, 1.1 × 10^6 cells/mouse i.p., no mucin, compound hypodermically 1 hour after infection, 7-day survival

Row | SMILES | MIC [1] [µg/mL] | MIC [2] [µg/mL] | MIC [3] [µg/mL] | MIC [4] [µg/mL] | ED50 [5] [mg/kg] | MIC [6] [µg/mL] | MIC (Proteus vulgaris No. 33) [µg/mL] | MIC [7] [µg/mL] | ED50 [8] [mg/kg] | MIC [9] [µg/mL] | ED50 [10] [mg/kg] | MIC (Pseudomonas cepacia 23) [µg/mL] | MIC (Escherichia coli ML 4707 [11]) [µg/mL] | ED50 (Escherichia coli ML 4707 [12]) [mg/kg]
1 | Cc1cc(SCC2=C(C(=O)O)N3C(=O)[C@@H](NC(=O)/C(=N\OCc4cc(=O)c(O)cn4O)c4csc(N)n4)[C@H]3SC2)n2nc(C(=O)O)nc2n1 [Example 4, (6R, 7R)-7-[(Z)-2-(2-aminothiazol-4-yl)-2-(1,5-dihydroxy-4-pyridon-2-ylmethoxyimino)acetamido]-3(2-carboxy-5-methyl-s-triazolo[1,5-a]pyrimidin-7-ylthiomethyl)-3-cephem-4-carboxylic acid] | 0.39 (≈ 0.534 µM) | 12.5 (≈ 17.1 µM) | 0.2 (≈ 0.274 µM) | 12.5 (≈ 17.1 µM) | 12 | 0.2 (≈ 0.274 µM) | 0.1 (≈ 0.137 µM) | 0.39 (≈ 0.534 µM) | 4 | 0.39 (≈ 0.534 µM) | 8.7 | 0.2 (≈ 0.274 µM) | 0.1 (≈ 0.137 µM) | 0.16
2 | CO/N=C(\C(=O)N[C@@H]1C(=O)N2C(C(=O)O)=C(COC(C)=O)CS[C@H]12)c1csc(N)n1 [CTX, cefotaxime, reference compound] | 6.25 (≈ 13.7 µM) | 25 (≈ 54.9 µM) | 25 (≈ 54.9 µM) | 3.13 (≈ 6.87 µM) | > 100 | 0.1 (≈ 0.22 µM) | 0.05 (≈ 0.11 µM) | 12.5 (≈ 27.4 µM) | > 200 | 3.13 (≈ 6.87 µM) | 3.1 | 3.13 (≈ 6.87 µM) | ≤ 0.025 | 0.095
3 | NC(=O)c1cc[n+](CC2=C(C(=O)O)N3C(=O)[C@@H](NC(=O)[C@@H](c4ccccc4)S(=O)(=O)[O-])[C@H]3SC2)cc1 [CFS, cefsulodin, reference compound] | > 100 | 50 (≈ 93.9 µM) | 3.13 (≈ 5.88 µM) | 3.13 (≈ 5.88 µM) | 39 | > 100 |  | 1.56 (≈ 2.93 µM) | 13 | > 100 |  | > 100 | 50 (≈ 93.9 µM) | > 100
4 | Cn1nnnc1SCC1=C(C(=O)O)N2C(=O)[C@@H](NC(=O)/C(=N\OCc3cc(=O)c(O)cn3O)c3csc(N)n3)[C@H]2SC1 [Example 5, (6R, 7R)-7-[(Z)-2-(2-aminothiazol-4-yl)-2-(1,5-dihydroxy-4-pyridon-2-ylmethoxyimino)acetamido]-3(1-methyl-1H-tetrazol-5-ylthiomethyl)-3-cephem-4carboxylic acid] | 0.39 (≈ 0.613 µM) | 1.56 (≈ 2.45 µM) | 0.1 (≈ 0.157 µM) | 50 (≈ 78.5 µM) | 18.9 | ≤ 0.025 | ≤ 0.025 | 0.1 (≈ 0.157 µM) |  | 0.39 (≈ 0.613 µM) |  | 0.05 (≈ 0.0785 µM) | ≤ 0.025 | 0.12

Source: patent US4822786A, “Cephalosporin compounds, and antibacterial agents” (Kaken Pharmaceutical Co., Ltd., priority 1986, dated 1989)
